Data published in patent US20090179638A1, “ASSAY FOR IDENTIFYING INHIBITORS OF NEURONAL APOPTOTIC PATHWAYS” (AEGERA THERAPEUTICS INC., priority 2006, published 2009).

How the values were obtained:
JNK = JNK activity in vitro; format: biochemical; conditions: data not shown
HSP70 and HSP25 = test: Endogenous HSP protein expression in wild-type or HSF1 null MEFs (immunoblot); format: cell-based, mouse
Description: FIGS. 5B and 5C are photographs of Western blots showing that compound 1 binds HSP90 and causes HSF1-dependent expression of HSP70 and HSP25. A: Wild-type or HSF1 null MEFs were transfected with pGL3B-HSP70, an HSP70 promoter reporter construct, or parental vector (pGL3B), then treated with 40 μM of compound 1 for 24 hours and analyzed for luciferase content as described in Materials and Methods (*=P<0.005 relative to 0 compound 1; **=P<0.005 relative to wild-type MEFs treated with 40 uM compound 1. B: Wild-type or HSF1 null MEFs were treated with increasing concentrations of compound 1 for 24 hours, cells were lysed, normalized for protein content, and analyzed for levels of HSP70, HSP40, and HSP25 as indicated. C: Compound 6-conjugated Sepharose beads were incubated with purified HSP90 for 2 hours, washed, and levels of bound HSP90 were analyzed by immunoblot. Con=Control beads, Alone=Compound 6-beads alone, Comp=[…]+competing compound 1 (at 80 μM). Experiments in Panel A-C were performed three times with identical results.
Induction of cell stress results in the interaction of HSP90 with misfolded proteins and disrupts its association with HSF1, allowing it to bind and activate HSP70 and HSP25 promoters (Sanchez-Perez and Perona, 1999). […]

HSP90 = test: ATP-Sepharose interaction assay; format: binding; conditions: purified HSP90 pre-incubated with substance
Description: Bound HSP90 was eluted HSP90 content was determined by immunoblotting.
ATP-Sepharose Interaction Assays. These were performed essentially as described in (Grenert et al., 1997). […] 25 ul of ATP-sepharose beads were added and the reactions were incubated for 30 min at 30° C. After thorough washing with ice-cold incubation buffer, bound proteins were eluted in sample buffer and HSP90 content was determined by immunoblotting.

HSP90 protein = test: STD 1H NMR spectroscopy binding to HSP90; conditions: compound to protein ratio approximately 100:1, 20 mM sodium phosphate buffer pH 6.7
Description: (§1) FIG. 9 is a STD 1H NMR Spectrum of Compound 1 and 20 with HSP90 protein. STD NMR experiments were performed at 19° C. on a Varian INNOVA 500 MHz spectrometer equipped with a triple resonance HCN cold probe. A 1D saturation transfer difference pulse sequence with internal subtraction via phase cycling was employed. Residual HDO signal was removed using a W5 WATERGATE pulse sequence, with a […] interpulse delay. On resonance irradiation of the protein was performed at −0.5 ppm, with off-resonance irradiation at 34 ppm. The irradiation power was (g/2p)B1=93 Hz applied through a train of 50 ms eburp1 pulses with a 1 ms delay between the pulses. The total presaturation time was 5.1 s. The relaxation delay was set to 0.1 s. A 30 ms spin-lock pulse with a strength of (g/2p)B1=4600 Hz was used to eliminate background protein signals. The total number of scans was between 1536, with a sweep width of 16 ppm. Spectra were multiplied by a 1 Hz exponential line-broadening function prior to Fourier transform. Compounds 1 (85 uM) and 20 (85 uM) and HSP90 protein (0.85 uM) in 20 mM sodium phosphate buffer (pH 6.7) was used. A) STD 1H NMR spectrum, B) preset reference, and C) STD reference-no saturation/difference.
as §1, with “STD” for “FIG. 9 is a STD 1H NMR Spectrum of Compound 1 and 20 with HSP90 protein. STD”, “employed (Mayer and Meyer, JACS, 2001, 123, 6108-6117).” for “employed.”, “delay (Liu et. al, J. Magn. Res., 1998, 132, 125).” for “delay.”, “1536-2048,” for “1536,”, “transform.” for “transform. Compounds 1 (85 uM) and 20 (85 uM) and HSP90 protein (0.85 uM) in 20 mM sodium phosphate buffer (pH 6.7) was used. A) STD 1H NMR spectrum, B) preset reference, and C) STD reference-no saturation/difference.”
The compound to protein ratio was fixed at approximately 100:1 in 20 mM sodium phosphate buffer (pH 6.7). Compound 20 was used as a reference compound to compare binding affinities of various compounds to HSP90 by comparing the relative intensity of NOE effects in the spectra of compounds 1 and 20 (see FIG. 9), compounds 2 and 20, compounds 5 and 20, compounds 13 and 20, and compounds 15 and 20 (near equamolar quantities of each) in the presence of HSP90 protein. Using the NOE signals for the imidazole proton, and comparing peak heights, the relative kd of the compound pairs were compared (see Meyer and Peters, T. Angew. Chem. Int. Ed. 2003, 42, 864). The kds of the compound pairs ranged from 1:1 to 8:1. These differences in binding affinities correlated to the potency of each respective compound's ability to rescue SCG neurons from NGF withdrawal as previously reported.

In the case of `NS(=O)(=O)c1nn2cc(-c3ccccc3)nc2s1` [Compound 1], the “effect on JNK activity in vitro” value (JNK) is reported as “no effect”, the “expression of endogenous HSP70 and HSP25” value (HSP70 and HSP25; MEFs lacking HSF1, 24 hours) is reported as “not in MEFs lacking HSF1” and the “expression of endogenous HSP70 and HSP25” value (HSP70 and HSP25; wild type MEFs, 24 hours) is reported as “strong induction”. For the same molecule, the “binding of HSP90 to gATP-Sepharose” value (HSP90) was “does not decrease the amount of HSP90 bound to gATP-Sepharose but rather increased their association” and the “binding to HSP90 protein by STD 1H NMR” value (HSP90 protein) was “directly bind”.
In the case of `NS(=O)(=O)c1nn2cc(-c3ccc(N4CCOCC4)cc3)nc2s1` [Compound 2], the “binding to HSP90 protein by STD 1H NMR” value (HSP90 protein) is reported as “directly bind”.
